This is an account of results in ChEMBL document CHEMBL1201862, “PubChem BioAssay data set” (2004).

Some test systems named below: 786-0; A498; CCRF-CEM; DU-145; HCT-15; Hs-578T; IGROV-1; K562; KM12; MDA-MB-231; MDA-MB-435; NCI/ADR-RES; OVCAR-5; PC-3; RPMI-8226; SF-295; SK-MEL-2; SK-OV-3; U-251; UO-31.
Assay in all cases: DTP human tumour cell line panel, 48 h

Each structure is given as a SMILES string.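 Where inhibition never reached the appropriate level, the endpoint shown equals the highest concentration tested. Otherwise, values were interpolated linearly from a five-concentration, 48-hour dose response in 96-well plates. At the GI50, growth is halved.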 The source made the active and inactive calls. Cut-off read from the data, not from the text of the source: active = GI50 up to about 1.1 µM and inactive = higher. Bounds are passed on as bounds.

For orientation: GI50 means the concentration at which growth is held to half of that of the control. For the molecule `O=C1Nc2ccc(Br)cc2C1=Nc1cccnc1`, the GI50 with 786-0 was 20.5 µM (inactive); with A498, > 100 µM (inactive); in the assay on CCRF-CEM it was 16.2 µM (inactive); in the assay on DU-145, 33 µM (inactive); with HCT-15 it was 22.1 µM; in the assay on Hs-578T it was 19.9 µM (inactive). Moreover, the GI50 was 19 µM (inactive) with IGROV-1; 20.1 µM (inactive) with K562; 27.4 µM (inactive) in the assay on KM12; 18.1 µM (inactive) in the assay with MDA-MB-231; 13 µM (inactive) with MDA-MB-435; 24.8 µM (inactive) in the assay with NCI/ADR-RES. The GI50 in the assay on OVCAR-5 was 29.3 µM (inactive); in the assay on PC-3, 18.1 µM (inactive); with RPMI-8226 it was 21.4 µM (inactive); with SF-295, 50.4 µM (inactive); in the assay on SK-MEL-2, 23.4 µM (inactive); in the assay with SK-OV-3, 47.5 µM (inactive). The GI50 with U-251 is 12.4 µM (inactive); with UO-31, 11.1 µM (inactive).
With `O=C(CCSC(CC(=O)c1ccc(Cl)cc1)c1ccc(Cl)cc1)Nc1ccc(Cl)cc1` (stereo not given), the GI50 in the assay with 786-0 is 13.8 µM (inactive); in the assay with A498, 12.4 µM (inactive); with CCRF-CEM, 2.09 µM (inactive); in the assay on DU-145, 14 µM (inactive); in the assay with HCT-15, 10.8 µM; with Hs-578T it was 26.3 µM (inactive). In addition, the GI50 in the assay with IGROV-1 is 14.9 µM (inactive); in the assay on K562 it was 4.06 µM (inactive); with KM12, 3.21 µM (inactive); in the assay on MDA-MB-231 it was 15.2 µM (inactive); with MDA-MB-435, 12.3 µM (inactive); in the assay with NCI/ADR-RES, 15.5 µM (inactive). Besides, the GI50 in the assay on OVCAR-5 was 16.4 µM (inactive); in the assay with PC-3 it was 14.1 µM (inactive); in the assay with RPMI-8226, 2.19 µM (inactive); with SF-295, 9.44 µM (inactive); with SK-MEL-2 it was 15.5 µM (inactive); in the assay on SK-OV-3 it was 20.7 µM (inactive). Further, the results for the GI50 in the assay with U-251 and in the assay with UO-31 were 9.06 µM (inactive) and 14 µM (inactive), respectively.
For the molecule `Oc1ccc(-c2cc(-c3cc(-c4ccc(O)cc4)no3)on2)cc1`, the GI50 with 786-0 is > 100 µM (inactive); in the assay on A498, > 100 µM (inactive); with CCRF-CEM, 0.873 µM (active); in the assay on DU-145 it was 5.09 µM (inactive); with HCT-15, 1.98 µM; in the assay on Hs-578T, > 100 µM (inactive). Further, the GI50 in the assay on IGROV-1 is 43.7 µM (inactive); in the assay with K562, 1.75 µM (inactive); in the assay with KM12, 11.8 µM (inactive); with MDA-MB-231, > 24.4 µM (inactive); with MDA-MB-435, > 100 µM (inactive); in the assay with NCI/ADR-RES, > 100 µM (inactive). The GI50 with OVCAR-5 is > 53.3 µM (inactive); with PC-3, 13.2 µM (inactive); with RPMI-8226 it was 3.52 µM (inactive); with SF-295, 35.1 µM (inactive); in the assay on SK-MEL-2, > 48 µM (inactive); in the assay with SK-OV-3, > 100 µM (inactive). Moreover, the GI50 in the assay on U-251 was 39.9 µM (inactive); with UO-31 it was 10.8 µM (inactive).
In the case of `COc1cccc(CC(=O)N2CCN(CCCc3ccccc3)CC2)c1`, the GI50 in the assay with 786-0 was > 100 µM (inactive); in the assay on A498, > 100 µM (inactive); in the assay on CCRF-CEM, 89.3 µM (inactive); in the assay on DU-145, > 100 µM (inactive); in the assay with HCT-15, 45.9 µM; in the assay on Hs-578T, > 100 µM (inactive). Further, the GI50 with IGROV-1 was > 100 µM (inactive); in the assay on K562, 33.9 µM (inactive); in the assay with KM12, > 100 µM (inactive); in the assay on MDA-MB-231, > 100 µM (inactive); with MDA-MB-435 it was 70.6 µM (inactive); with NCI/ADR-RES, 27.9 µM (inactive). Further, the GI50 was > 100 µM (inactive) in the assay with OVCAR-5; > 100 µM (inactive) with PC-3; 43.6 µM (inactive) with RPMI-8226; 47.5 µM (inactive) in the assay with SF-295; > 100 µM (inactive) with SK-MEL-2; > 100 µM (inactive) in the assay on SK-OV-3. In addition, the GI50 in the assay with U-251 is > 100 µM (inactive); in the assay with UO-31, 39.1 µM (inactive).
Turning to `CCN(CC)/[N+]([O-])=N/OCOC`, the GI50 in the assay on 786-0 is > 100 µM (inactive); with A498, > 100 µM (inactive); in the assay on CCRF-CEM it was > 100 µM (inactive); with DU-145, > 100 µM (inactive); in the assay on HCT-15, over 100 µM; in the assay with Hs-578T, > 100 µM (inactive). Further, the GI50 in the assay on IGROV-1, in the assay with K562, in the assay on KM12, in the assay with MDA-MB-231, in the assay on MDA-MB-435 and with NCI/ADR-RES was > 100 µM (inactive) in each case. Moreover, the GI50 in the assay on OVCAR-5, in the assay on PC-3, in the assay with RPMI-8226, with SF-295, in the assay with SK-MEL-2 and with SK-OV-3 was > 100 µM (inactive) each time. The GI50 in the assay with U-251 and in the assay with UO-31 was > 100 µM (inactive) throughout.
Take `CC1(C)OC(=O)N(c2ccccc2)C12C=Cc1cccc([N+](=O)[O-])c1O2` (stereo not given): the GI50 was > 100 µM (inactive) in the assay on 786-0; 50.2 µM (inactive) in the assay on A498; 37.3 µM (inactive) with CCRF-CEM; > 100 µM (inactive) in the assay on DU-145; 90.2 µM in the assay with HCT-15; 73.6 µM (inactive) in the assay on Hs-578T. The GI50 is 96.6 µM (inactive) in the assay on IGROV-1; 35.1 µM (inactive) in the assay with K562; 58.6 µM (inactive) with KM12; > 100 µM (inactive) in the assay with MDA-MB-231; 33 µM (inactive) in the assay with MDA-MB-435; 48.2 µM (inactive) in the assay with NCI/ADR-RES. For the same molecule, the GI50 was > 100 µM (inactive) with OVCAR-5; 31 µM (inactive) with PC-3; 53.3 µM (inactive) with RPMI-8226; 55.1 µM (inactive) in the assay with SF-295; > 100 µM (inactive) in the assay with SK-MEL-2; 28.2 µM (inactive) in the assay on SK-OV-3. In addition, the GI50 in the assay on U-251 was 65.9 µM (inactive); in the assay with UO-31, 45.3 µM (inactive).
On to `CCOP(=O)(OCC)/C(C#N)=C/c1cnc[nH]1`, for which the GI50 in the assay on 786-0 is > 100 µM (inactive); in the assay with A498, > 100 µM (inactive); in the assay on CCRF-CEM it was > 100 µM (inactive); in the assay with DU-145, > 100 µM (inactive); with HCT-15, over 100 µM; with Hs-578T it was > 100 µM (inactive). Moreover, the GI50 in the assay on IGROV-1, with K562, in the assay on KM12, in the assay on MDA-MB-231, in the assay with MDA-MB-435 and in the assay on NCI/ADR-RES was > 100 µM (inactive) throughout. For the same molecule, the GI50 in the assay with OVCAR-5, in the assay with PC-3, in the assay on RPMI-8226, in the assay with SF-295, in the assay with SK-MEL-2 and with SK-OV-3 was > 100 µM (inactive) throughout. Further, the GI50 with U-251 and with UO-31 was > 100 µM (inactive) in each case.
`O=C(O)CCCC(=O)Nn1c(Cc2ccc(Cl)cc2)n[nH]c1=O`: the GI50 in the assay on 786-0 is > 100 µM (inactive); with A498, 71.6 µM (inactive); in the assay with CCRF-CEM, > 100 µM (inactive); in the assay with DU-145, > 100 µM (inactive); in the assay with HCT-15, over 100 µM; with Hs-578T it was > 100 µM (inactive). Moreover, the GI50 with IGROV-1, with K562, in the assay with KM12, with MDA-MB-231, in the assay with MDA-MB-435 and in the assay on NCI/ADR-RES was > 100 µM (inactive) throughout. In addition, the GI50 in the assay with OVCAR-5, with PC-3, with RPMI-8226, in the assay with SF-295, in the assay on SK-MEL-2 and with SK-OV-3 was > 100 µM (inactive) each time. The results for the GI50 with U-251 and in the assay on UO-31 were > 100 µM (inactive) and 14.9 µM (inactive), respectively.
As to `Cc1ccc(CNNC(=O)c2cc[n+]([BH2-]C#N)cc2)cc1`, the GI50 is > 100 µM (inactive) in the assay on 786-0; 15.6 µM (inactive) with A498; 26.3 µM (inactive) with CCRF-CEM; > 100 µM (inactive) with DU-145; over 100 µM with HCT-15; 48.5 µM (inactive) with Hs-578T. Also, the GI50 in the assay on IGROV-1 was > 100 µM (inactive); in the assay on K562, 49.2 µM (inactive); in the assay on KM12, > 100 µM (inactive); in the assay on MDA-MB-231 it was 99.3 µM (inactive); in the assay with MDA-MB-435, > 100 µM (inactive); with NCI/ADR-RES, > 100 µM (inactive). Further, the GI50 in the assay with OVCAR-5 is > 100 µM (inactive); in the assay with PC-3 it was 84.9 µM (inactive); with RPMI-8226 it was > 100 µM (inactive); in the assay on SF-295, > 100 µM (inactive); in the assay with SK-MEL-2 it was > 100 µM (inactive); in the assay on SK-OV-3, > 100 µM (inactive). The GI50 in the assay on U-251 and in the assay with UO-31 was > 100 µM (inactive) in each case.
For the molecule `Oc1cccc2ccc(SSc3ccc4cccc(O)c4n3)nc12`, the GI50 in the assay with 786-0 was 18.2 µM (inactive); in the assay on A498, 19.2 µM (inactive); in the assay on CCRF-CEM it was 3.36 µM (inactive); in the assay on DU-145, 73.1 µM (inactive); with HCT-15, 22.3 µM; in the assay on Hs-578T, 31.4 µM (inactive). Also, the GI50 with IGROV-1 was 24.7 µM (inactive); in the assay on K562, 29.2 µM (inactive); in the assay on KM12, 13.7 µM (inactive); in the assay on MDA-MB-231 it was 16.7 µM (inactive); with MDA-MB-435, 19 µM (inactive); in the assay on NCI/ADR-RES, 26.1 µM (inactive). Also, the GI50 is 19.4 µM (inactive) in the assay with OVCAR-5; 16.3 µM (inactive) in the assay on PC-3; 26.1 µM (inactive) in the assay with RPMI-8226; 16.6 µM (inactive) in the assay with SF-295; 19.1 µM (inactive) in the assay with SK-MEL-2; 16.3 µM (inactive) with SK-OV-3. For the same molecule, the GI50 with U-251 was 16.4 µM (inactive); with UO-31, 25.8 µM (inactive).
